Values quoted from earlier work as cited in patent US4801444A, “Medicinal preparation for individual prevention of venereal diseases and treatment of urogenital trichomoniasis” (Poltavsky Meditsinsky Stomatologichesky Institut, priority 1988, dated 1989).
Read-outs that look alike come from different tables or passages of the source.

Legend:
[1] = tested on: urogenital trichomoniasis
trichomonads = conditions: imidazole medicines, clinical use
[2] = 0.05-0.1 percent solution, clinical application
venereal diseases [3] = conditions: 0.05-0.1 percent solution
venereal diseases [4] = conditions: 0.05-0.1 percent solution; remark: listed apart in the source

For O=C(N[C@H](CO)[C@H](O)c1ccc([N+](=O)[O-])cc1)C(Cl)Cl [laevomycetin], which “efficacy in topical treatment of urogenital trichomoniasis” value (“efficacy in topical treatment” for short) ([1]; topical (external)) is on record?
The value was “insufficiently efficacious”.

With O=S(=O)([O-])[O-].[Zn+2] [zinc sulphate] as the compound, how does the “efficacy in topical treatment” value ([1]; topical (external)) read?
The value was “insufficiently efficacious”.

Which “efficacy in topical treatment” value ([1]; topical (external)) does the source give for O=S(=O)([O-])[O-].[Cu+2] [copper sulphate] here?
The value was “insufficiently efficacious”.

With CCS(=O)(=O)CCn1c([N+](=O)[O-])cnc1C [Tinidazole] as the compound, how does the “relapsing of a specific process” value (trichomonads) read?
The value was “up to 8.4% of all cases”.

With OB(O)O [boric acid] as the compound, how does the “efficacy in topical treatment” value ([1]; in vivo) read?
The value was “insufficiently efficacious”.

For Cc1ncc([N+](=O)[O-])n1CCO [Metronidazole], which “relapsing of a specific process” value (trichomonads) is on record?
Its value is “up to 8.4% of all cases”.

With [H]/N=C(\N/C(=N/[H])NCCCCCCNC(=N)NC(=N)Nc1ccc(Cl)cc1)Nc1ccc(Cl)cc1 [Chlorhexidine] as the compound, how does the “effect upon skin and genital mucosa in man” value [2] read?
The value was “irritating and withering effect upon the skin and genital mucosa”.

And the “bactericidal activity in vitro” value (venereal diseases [3])?
Its value is “adequate bactericidal activity”.

And the “bactericidal activity in tests on animals” value (venereal diseases [4])?
The value was “adequate bactericidal activity”.

With CC(=O)Nc1cc([As](=O)(O)O)ccc1O [Acetarsol] as the compound, how does the “efficacy in topical treatment” value ([1]; topical (external)) read?
Its value is “insufficiently efficacious”.

Which “efficacy in topical treatment” value ([1]; topical (external)) does the source give for O=[N+]([O-])[O-].[Ag+] [lapis] here?
The value was “insufficiently efficacious”.
